Source: paper PMC6008586, “Analysis of transition state mimicry by tight binding aminothiazoline inhibitors provides insight into catalysis by human O-GlcNAcase” (Chemical Science, 2016)
Where two headings read alike, the source gives them in different places. Each block holds one molecule with its values, some of them ahead of it.

Columns and labels:
[1] = biological target: T1, human hexosaminidase B (hHexB) (Homo sapiens, UniProt P07686); test: Inhibition of human hexosaminidase B (4-MUGlcNAc substrate); assay type: biochemical; conditions: for Ki: pH 4.25, 37°C; for (hHexB/hOGA) selectivity ratio: Ki hHexB / Ki hOGA, favored selectivity for hOGA
T1 construct: Micheal Tropak, Hospital for Sick Children, Toronto (gift, not a vendor)
T1 sequence (P07686 122-556): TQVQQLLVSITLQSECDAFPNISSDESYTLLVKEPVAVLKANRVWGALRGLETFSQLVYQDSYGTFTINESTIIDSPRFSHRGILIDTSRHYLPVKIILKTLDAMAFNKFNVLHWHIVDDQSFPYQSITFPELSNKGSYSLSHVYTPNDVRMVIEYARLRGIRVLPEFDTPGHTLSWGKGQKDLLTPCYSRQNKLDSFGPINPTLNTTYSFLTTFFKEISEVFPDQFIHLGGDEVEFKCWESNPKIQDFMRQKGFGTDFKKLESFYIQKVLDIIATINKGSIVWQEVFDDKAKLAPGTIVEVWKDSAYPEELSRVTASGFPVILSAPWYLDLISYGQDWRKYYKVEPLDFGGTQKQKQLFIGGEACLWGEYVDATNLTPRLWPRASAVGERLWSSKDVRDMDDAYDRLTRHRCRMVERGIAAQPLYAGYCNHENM
Text: We next set out to assess the selectivity of this series of inhibitors for hOGA over the lysosomal β-hexosaminidases, which are comprised of combinations of α and β subunits that are products of the highly homologous HEXA and HEXB genes. […]
(§1) Biological evaluation: Gene expression and protein purification. hOGA was expressed and purified according to the previously described procedure by Macauley et al.[5] hOGA was dialyzed twice against PBS buffer after purification and its concentration determined using the Nanodrop2000. Human β-hexosaminidase was obtained from Micheal Tropak at the Hospital for Sick Children in Toronto, without further purification.
(§2) Kinetic analysis of hOGA. […]
(§3) in PBS pH 7.4 buffer (0.03% BSA) in triplicate at 37°C for 20 minutes. A continuous assay procedure was performed in which the reactions were initiated by the addition of 4-MUGlcNAc substrate (50 µL or 100 µL via a multi-channel […]
(§4) The excitation and emission were 350
(§5) The amount of fluorogenic substrate liberated was quantitatively assessed by using a standard curve for 4-methylumbelliferone under identical buffer conditions. A total of 6-8 inhibitor concentrations were tested, […]
(§6) The hOGA concentrations in the assays ranged from 0.8 nM to 20 nM, depending on whether the Ki being determined was through classic Michaelis-Menten methods or the Morrison Ki fit. For full Ki […]
For the Morrison Ki analyses, only one substrate concentration was used (at the Km) since the method of inhibition was already known from analysis using the Line-weaver Burke plots. […]
Kinetic analysis of β-hexosaminidase. All assays were carried out in 96 well plates (Thermoscientific, FloroNunc, lot […]
reactions were triggered by addition of substrate (20 µL or 15 µL) in a total volume of 45 or 40 µL. Reactions were […]
detect the fluorescent signal. […]

human OGA (hOGA) = biological target: T2, human OGA (hOGA) (Homo sapiens, UniProt O60502); test: Inhibition of hOGA-catalysed 4-MUGlcNAc hydrolysis (Ki determination); assay type: biochemical
T2 construct: made in house
T2 sequence (O60502 1-916): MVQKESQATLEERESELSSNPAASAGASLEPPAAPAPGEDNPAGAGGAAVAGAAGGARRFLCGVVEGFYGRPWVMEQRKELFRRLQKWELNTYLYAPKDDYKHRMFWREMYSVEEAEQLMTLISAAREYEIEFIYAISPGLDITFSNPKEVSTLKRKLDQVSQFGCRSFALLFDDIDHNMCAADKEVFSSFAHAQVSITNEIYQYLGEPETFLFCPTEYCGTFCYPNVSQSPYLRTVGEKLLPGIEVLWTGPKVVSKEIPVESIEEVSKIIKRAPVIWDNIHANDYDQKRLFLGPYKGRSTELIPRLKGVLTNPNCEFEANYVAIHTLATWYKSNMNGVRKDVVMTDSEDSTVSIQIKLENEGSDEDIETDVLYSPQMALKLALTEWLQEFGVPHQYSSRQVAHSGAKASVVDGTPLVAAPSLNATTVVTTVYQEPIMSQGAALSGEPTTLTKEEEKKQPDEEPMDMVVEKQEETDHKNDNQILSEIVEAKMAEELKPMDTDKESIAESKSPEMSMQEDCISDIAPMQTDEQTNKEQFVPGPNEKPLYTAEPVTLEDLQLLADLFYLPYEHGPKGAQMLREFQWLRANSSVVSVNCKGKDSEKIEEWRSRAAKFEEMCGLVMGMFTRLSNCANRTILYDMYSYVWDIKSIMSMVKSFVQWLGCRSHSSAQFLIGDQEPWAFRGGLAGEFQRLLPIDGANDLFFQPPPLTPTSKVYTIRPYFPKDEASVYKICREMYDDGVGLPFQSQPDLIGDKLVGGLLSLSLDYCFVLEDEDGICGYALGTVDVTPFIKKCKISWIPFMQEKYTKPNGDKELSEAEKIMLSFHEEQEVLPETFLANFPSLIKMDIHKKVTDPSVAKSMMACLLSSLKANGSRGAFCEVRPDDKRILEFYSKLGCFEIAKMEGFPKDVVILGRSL
Text: Refinement of the Morrison approach by Copeland enables defining the Ki value for an inhibitor through the use of relative rates using a quadratic equation (eqn (1)).[46] This approach depends on knowing the initial free enzyme and inhibitor concentrations without the assumption that the free inhibitor concentration is equal to the total inhibitor concentration.1 [drawing 1]
Further, Ki values can be accurately determined over a wide range of enzyme concentrations using this method,[47] which enabled us to use hOGA concentrations that permit accurate initial rate determinations. […]
as §1, §2, §3, §4, §5, §6
For the Morrison Ki analyses, only one substrate concentration was used (at the Km) since the method of inhibition was already known from analysis using the Line-weaver Burke plots.
Kinetic analysis of substrates 18a-e were performed in triplicate using pH 7.4 PBS buffer (0.03% BSA) containing 2.5% DMF, with varying enzyme concentrations. […]

[2] = reference compound with known pKa; cited from earlier work
[3] = test system: human lysosomal β-hexosaminidase (HEX); conditions: cited from earlier work
physchem = conditions: aqueous solution (H2O/D2O) with reference phenol
Procedure: (§7) In this way, a non-linear plot of the difference between NMR resonance frequencies for a compound of interest and those for a standard, such as 3-nitrophenol, can be used to determine the ratio (R) of the acid dissociation constants between these two materials.
(§8) pK determination using 13C NMR. All titrations were carried out on the Bruker AVANCE II 600 MHz NMR
(§9) spectrometer. The samples prepared for each titration contained 5 µL of 1,4-dioxane as an internal standard, an equal mol
(§10) amount of inhibitor and 3-nitrophenol or 3.4-dinitrophenol (depending on the availability of each compound) in 500 µL of
(§11) Each sample was made basic with 25-70 µL of 2M NaOH, and prior to
(§12) titration, it was ensured that there was no change in chemical shift with further addition of base in 5 µL increments, in
(§13) order to accurately establish the δd for each compound. The basic sample was then titrated with 10 µL of 0.5 M (15f-15h,
(§14) titration was reached. The point where the chemical shift stopped changing was the recorded δp for each compound. The
(§15) relative pKa (∆pKa) was then determined by non-linear fitting of data to Equation S1, which provides the value of R (R =
(§16) K x/K r) and describes the relationship between the difference (∆) in chemical shifts (δ) between each compound of
(§17) unknown pKa (x) and the reference compound with known pKa (r). δp and δd represent the chemical shifts of the protonated
(§18) and de-protonated species of each compound, where ∆ expresses the difference between the de-protonated species (δ x –
(§19) δd ), ∆ represents the difference between the deprotonated and protonated species of x (δd – δp ), and ∆ for that of the
(§20) reference compound (∆r = δ r – δ r). The fractional protonation of the reference compound is represented by n and is equal
We observed the 2′-carbon of the
(§21) aminothiazoline system and the C-1 carbon of 3-nitrophenol since these are most proximal to the ionizable center. Fitting
(§22) of the resulting data to Equation S1 (Figure 5 (ThiamEt-G), Supplemental Figure S7) enabled us to obtain values of R for
(§23) each compound and, by comparison to the reference compound, absolute pKa values (Table 1). The observed pKa values

[4] = pKa determination using 13C NMR titration
Procedure: as §7, §8, §9, §10, §11, §12, §13, §14, §15, §16, §17, §18, §19, §20
We observed the 2′-carbon of the
as §21, §22, §23

hOGA = biological target: T3, hOGA (Homo sapiens, UniProt O60502); conditions: cited from earlier work
T3 construct: made in house
T3 sequence (O60502 1-916): T2 sequence (O60502 1-916)

[5] = Dixon plot analysis (approximate Ki)
[6] = Morrison Ki fit, 4-MUGlcNAc, PBS pH 7.4, 37°C, read-out: hOGA Ki
[7] = 3-nitrophenol as reference compound
[8] = Michaelis–Menten inhibition analysis, 4-MUGlcNAc, PBS pH 7.4, 37°C, read-out: hOGA Ki
[9] = 3,4-dinitrophenol as reference compound

Compound: C=CCNC1=N[C@@H]2[C@@H](O)[C@H](O)[C@@H](CO)O[C@@H]2S1 [11b]
- Ki [1, 5]: 2850 ± 570 µM
- (hHexB/hOGA) selectivity ratio [1]: 950 000
- mode of inhibition of hOGA (human OGA (hOGA); Lineweaver–Burk / Michaelis-Menten analysis): competitive inhibition
- Ki (human OGA (hOGA); Michaelis-Menten analysis, hOGA 0.8 nM (Figure S2A), read-out: hOGA Ki): 0.0023 ± 0.0003 µM
- Ki (human OGA (hOGA); [6]): 0.0032 ± 0.0004 µM
- Ki (human OGA (hOGA); Morrison approach, hOGA 10 nM, substrate 60 µM (Figure S2B), read-out: hOGA Ki): 0.0032 ± 0.0004 µM
- Ki (human OGA (hOGA); graphical determination, Km app against inhibitor concentration (Figure S2A inset), read-out: hOGA Ki): 0.0047 µM

Compound: O=[N+]([O-])c1cccc(O)c1 [3-nitrophenol]
- pKa [2]: 8.42

Compound: CC(=O)N[C@H]1CN2CC[C@H](O)[C@@H]2[C@@H](O)[C@@H]1O [6-Ac-Cas, 6-acetamido-6-deoxy-castanospermine]
- selectivity for hOGA over lysosomal β-hexosaminidases ([3]; in words): non-selective

Compound: CCNC1=N[C@@H]2[C@@H](O)[C@H](O)[C@@H](CO)O[C@@H]2S1 [15c, 1,2-dideoxy-2′-ethylamino-α-D-glucopyranoso-[2,1-d]-Δ2′-thiazoline]
- pKa (physchem): 7.68
- Ki ([3]; read-out: hHexB Ki): 740 ± 60 µM
- R (Kax/Kar) [4, 7]: 0.1823 ± 0.0042
- Fraction protonated at pH 7.4 [4]: 0.66

Compound: CCCC1=N[C@@H]2[C@@H](O)[C@H](O)[C@@H](CO)O[C@@H]2S1 [NButGT, reference compound]
- pKa (physchem): 4.65
- Ki(HEX)/Ki(hOGA) ([3]; selectivity for hOGA over lysosomal β-hexosaminidases): 1,500
- R (Kax/Kar) [4, 9]: 5.47 ± 3.28

Compound: OC[C@H]1O[C@@H]2SC(NCCF)=N[C@@H]2[C@@H](O)[C@@H]1O [15f]
- pKa (physchem): 6.92
- Ki [1, 5]: 180 ± 44 µM
- (hHexB/hOGA) selectivity ratio [1]: 12 000
- Ki (human OGA (hOGA)): 0.015 ± 0.005 µM
- R (Kax/Kar) [4, 7]: 0.0316 ± 0.0063
- Fraction protonated at pH 7.4 [4]: 0.25

Compound: CC(C)C(=O)N[C@H]1c2nc(CCc3ccccc3)cn2[C@H](CO)[C@@H](O)[C@@H]1O [GlcNAcstatin C]
- Ki(HEX)/Ki(hOGA) [3]: 190
- Ki (hOGA): 0.0032 µM

Compound: NC1=N[C@@H]2[C@@H](O)[C@H](O)[C@@H](CO)O[C@@H]2S1 [11a]
- (hHexB/hOGA) selectivity ratio [1]: 1100
- Ki ([1]; Michaelis–Menten inhibition analysis (full Ki)): 5 ± 0.6 µM
- Ki (human OGA (hOGA); [6]): 0.0047 ± 0.0003 µM

Compound: C=CC=CC(=O)N[C@H]1c2nc(CCc3ccccc3)cn2[C@H](CO)[C@@H](O)[C@@H]1O [GlcNAcstatin G]
- Ki(HEX)/Ki(hOGA) [3]: 900 000
- Ki (hOGA): 0.0041 µM

Compound: CCCCC(=O)N[C@H]1c2nc(CCc3ccccc3)cn2[C@H](CO)[C@@H](O)[C@@H]1O [GlcNAcstatin H]
- Ki(HEX)/Ki(hOGA) [3]: 35 000

Now from value to molecule:

- Ki [1, 5]: 4800 ± 763 µM
- (hHexB/hOGA) selectivity ratio [1]: 13 700
- Ki (human OGA (hOGA); [8]): 0.35 ± 0.09 µM
Compound: CCCCNC1=N[C@@H]2[C@@H](O)[C@H](O)[C@@H](CO)O[C@@H]2S1 [15e]

- Ki [1, 5]: 13 ± 3.8 µM
Compound: CN(C)C1=N[C@@H]2[C@@H](O)[C@H](O)[C@@H](CO)O[C@@H]2S1 [15b]

- pKa (physchem): 6.18
- Ki [1, 5]: 150 ± 50 µM
- (hHexB/hOGA) selectivity ratio [1]: 2500
- Ki (human OGA (hOGA); [8]): 0.06 ± 0.01 µM
- R (Kax/Kar) [4, 7]: 0.0058 ± 0.0002
- Fraction protonated at pH 7.4 [4]: 0.06
Compound: OC[C@H]1O[C@@H]2SC(NCC(F)F)=N[C@@H]2[C@@H](O)[C@@H]1O [15g]

- pKa (physchem): 5.33
- Ki [1, 5]: 4200 ± 1530 µM
- (hHexB/hOGA) selectivity ratio [1]: 4200
- Ki (human OGA (hOGA); [8]): 1 ± 0.2 µM
- R (Kax/Kar) [4, 9]: 1.213 ± 0.049
- Fraction protonated at pH 7.4 [4]: 0.01
Compound: OC[C@H]1O[C@@H]2SC(NCC(F)(F)F)=N[C@@H]2[C@@H](O)[C@@H]1O [15h]

- Ki [1, 5]: 3700 ± 670 µM
- (hHexB/hOGA) selectivity ratio [1]: 1 850 000
- Ki (human OGA (hOGA); [6]): 0.002 ± 0.0002 µM
Compound: CCCNC1=N[C@@H]2[C@@H](O)[C@H](O)[C@@H](CO)O[C@@H]2S1 [15d]
